Laboratory results taken from PubChem BioAssay AID651973 (The Scripps Research Institute Molecular Screening Center, 2013).
pIC50: −log10 of the molar value. Active and inactive are the calls of the source. How the calls were made is not given here.

System: Cell-based VP16 transactivation luciferase reporter, luminescence
Test: VP16 transactivation reporter inhibitors, dose response, counter-screen for LRH-1 inverse agonist project, cell-based, luminescence (AID 651973)

COc1ccc(NC(=O)COC(=O)Cc2c[nH]c3ccccc23)cc1Cl
IC50: > 35.9 µM (inactive)

CCCOc1ccc(NC(=O)CC2C(=O)N(C)C(=S)N2Cc2ccc3c(c2)OCO3)cc1 (configuration not stated)
pIC50: 5.06

COc1ccc(NC(=O)CSc2ccc3c(c2)OCCO3)cc1
IC50: > 35.9 µM (inactive)

COc1ccc(C2(C)NC(=O)N(CC(=O)NCCC3=CCCCC3)C2=O)cc1OC (configuration not stated)
IC50: > 35.9 µM (inactive)

Cc1cc(OCC(=O)NCc2cccnc2)c2c(C)c(C)c(=O)oc2c1
IC50: > 35.9 µM (inactive)

COc1cccc(C(=O)COc2cccc(NC(=O)c3cccc([N+](=O)[O-])c3)c2)c1
pIC50: 5.07

O=C(Nc1ccc(S(=O)(=O)N2CCOCC2)cc1)c1ccc([N+](=O)[O-])o1
IC50: 25.5 µM (inactive)

COc1ccc(CCNC(=O)COC(=O)c2cccn2C)cc1
IC50: > 35.9 µM (inactive)

COc1cc2c(cc1OC)CN(C(=O)CN1C(=O)NC3(CCC(C)CC3)C1=O)CC2 (configuration not stated)
IC50: > 35.9 µM (inactive)

COc1ccc(OC)c(NC(=O)c2ccccc2NC(=O)c2ccco2)c1
IC50: > 35.9 µM (inactive)

O=[N+]([O-])c1cc(F)c(N2CCCCCC2)cc1N1CCNCC1
IC50: 19.3 µM (inactive)

CCOc1ccc(OCCN2C(=O)NC(Cc3c[nH]c4ccccc34)C2=O)cc1 (configuration not stated)
IC50: > 35.9 µM (inactive)

CC1SC(C)C(=O)N(CC(=O)Nc2ccc3c(c2)OCO3)C1=O (configuration not stated)
IC50: > 35.9 µM (inactive)

CCOc1cc(/C=N/n2nnnc2N)ccc1OCc1c(C)no[n+]1[O-]
IC50: > 35.9 µM (inactive)

O=C(Nc1ccc(Br)cn1)c1ccc([N+](=O)[O-])o1
IC50: > 35.9 µM (inactive)

COc1ccc(CCn2c(C)cc(C(=O)COC(=O)c3ccc(O)cc3O)c2C)cc1
IC50: > 35.9 µM (inactive)

O=C(Nc1ccc(S(=O)(=O)N2CCOCC2)cc1)c1cccc([N+](=O)[O-])c1
IC50: > 35.9 µM (inactive)

COc1ccc(-n2c(N)c(C(=O)NCc3cccnc3)sc2=S)cc1
IC50: > 35.9 µM (inactive)

C/C(=N\Nc1cc(C(F)(F)F)ccc1Cl)c1ccncc1
IC50: > 35.9 µM (inactive)

N#CCSc1ccccc1NC(=O)CN1C(=O)C2CC=CCC2C1=O (configuration not stated)
IC50: > 35.9 µM (inactive)

CC(=O)c1ccc(OC(C)C(=O)OCC(=O)NCCc2ccccc2)cc1 (configuration not stated)
IC50: > 35.9 µM (inactive)

O=C(Nc1ccc(C(=O)N2CCOCC2)cc1)c1cccc([N+](=O)[O-])c1
IC50: > 35.9 µM (inactive)

O=C(OCC(=O)N1CCN(C(=O)COC(=O)c2ccc(O)cc2O)CC1)c1ccc(O)cc1O
IC50: > 35.9 µM (inactive)

COc1ccc(CCNC(=O)CSc2nn3c(=O)c(C)nnc3s2)cc1OC
IC50: > 35.9 µM (inactive)

CCOc1ccc(NC(=O)CSc2nnc(C(C)C)n2CC)cc1
IC50: > 35.9 µM (inactive)

COc1cc(OC)cc(-c2oc3cccnc3c2C#CCCO)c1
IC50: > 35.9 µM (inactive)

Cc1ccc(-c2nn3c(C)nnc3s2)cc1NC(=O)c1ccco1
IC50: > 35.9 µM (inactive)

CCCc1cc(=O)oc2cc(OCC(=O)NCCc3ccc(S(N)(=O)=O)cc3)ccc12
IC50: > 35.9 µM (inactive)

COc1ccccc1NC(=O)CN1CCN(CC(=O)Nc2ccc3c(c2)OCCO3)CC1
IC50: > 35.9 µM (inactive)

Cc1ccc(NC(=O)CSc2sc3c(O)cc(=O)[nH]c3c2C#N)c(F)c1
IC50: > 35.9 µM (inactive)

O=C(COc1ccc2c3c(c(=O)oc2c1)CCC3)NCc1ccncc1
IC50: > 35.9 µM (inactive)

CC(=O)Nc1ncc(Cc2cc(Cl)ccc2Cl)s1
IC50: > 35.9 µM (inactive)

O=C(CCl)NCCCN(C(=O)C(Cl)Cl)c1ccc([N+](=O)[O-])cc1
IC50: 28.4 µM (inactive)

CC(=O)Nc1ccc(NC(=O)CSc2ccc(-c3ccc(-n4ccnc4)cc3)nn2)cc1
IC50: > 35.9 µM (inactive)

CCCc1cc(=O)oc2cc(C)cc(OCC(=O)Nc3ccccn3)c12
IC50: > 35.9 µM (inactive)

CCOc1ccc(CCNC(=O)CN2C(=O)NC3(CCc4ccccc43)C2=O)cc1OCC (configuration not stated)
IC50: > 35.9 µM (inactive)

COc1ccc(CC(NC(C)=O)C(=O)NC2CCN(c3nnnn3-c3ccccc3)CC2)cc1 (configuration not stated)
IC50: > 35.9 µM (inactive)

Cc1cc(=O)oc2c(C)c(OCC(=O)NC3CC(C)(C)NC(C)(C)C3)ccc12
IC50: > 35.9 µM (inactive)

COc1ccc(CCNC(=O)CSc2ccc(NC(C)=O)cc2)cc1OC
IC50: > 35.9 µM (inactive)

CCOc1ccc(OCCC(=O)OCC(=O)Nc2ccc3c(c2)OCCO3)cc1
IC50: > 35.9 µM (inactive)

N#Cc1cc([N+](=O)[O-])ccc1NC(=O)COC(=O)C1CCC(=O)N1 (configuration not stated)
IC50: > 35.9 µM (inactive)

COC(=O)c1ccc(CNC(=O)COC(=O)c2cc(Cl)nc(Cl)c2)cc1
IC50: > 35.9 µM (inactive)

O=C(COC(=O)c1ccc[n+]([O-])c1)Nc1ccc([N+](=O)[O-])cc1Cl
IC50: > 35.9 µM (inactive)

Cc1ccc2cccc(OCC(=O)NCCC3=CCCCC3)c2n1
IC50: > 35.8 µM (inactive)

CC(C)Oc1cccc(-c2cc(C(=O)NN3CCOCC3)c3ccccc3n2)c1
IC50: > 35.9 µM (inactive)

Nc1ccc(C(=O)NN2C(=O)[C@H](Cl)C2c2ccc(Cl)cc2)cc1 (some centres not stated)
pIC50: 5.01

CCc1c(C)nc(SCC(=O)Nc2ccc3c(c2)OCCO3)[nH]c1=O
IC50: > 35.9 µM (inactive)
